# From article PMC6886523 (Nature chemical biology, 2017)
# Assays:
# Mtb [1] = assay: microbe, parasite or virus in culture; type: cell-based
# Mtb [2] = type: cell-based, Mycobacterium tuberculosis
# [3] = tested on: panel of Gram-negative and Gram-positive bacterial species; type: cell-based
# Mtb TrpAB [4] = molecular target: T1, Mtb TrpAB (Mycobacterium tuberculosis, UniProt P9WFX9+P9WFY1); type: biochemical
# Mtb TrpAB [5] = molecular target: T1, Mtb TrpAB; type: biochemical; remark: listed apart in the source
# Mtb TrpAB [6] = molecular target: T1, Mtb TrpAB; type: binding
# TrpAB = TrpAB (Mycobacterium tuberculosis, UniProt P9WFX9+P9WFY1); type: biochemical
# Mtb in J774 macrophages = type: cell-based; conditions: day 3 CFU/day 0 CFU
# M. marinum = assay: Zebrafish embryo infection, wild-type M. marinum; type: in vivo, Danio rerio (zebrafish); conditions: after 5 d of treatment
# Mtb TrpAB [7] = molecular target: T1, Mtb TrpAB
# [8] = ref PubChem compound ID 54650477; cited from earlier work
# in vitro [9] = conditions: mouse, microsomes
# in vitro [10] = conditions: mouse, hepatocytes
# GAPDH = GAPDH counter-check in coupled fluorescence assay; conditions: fluorescence assay conditions
# T1 sequence (P9WFY1 whole entry): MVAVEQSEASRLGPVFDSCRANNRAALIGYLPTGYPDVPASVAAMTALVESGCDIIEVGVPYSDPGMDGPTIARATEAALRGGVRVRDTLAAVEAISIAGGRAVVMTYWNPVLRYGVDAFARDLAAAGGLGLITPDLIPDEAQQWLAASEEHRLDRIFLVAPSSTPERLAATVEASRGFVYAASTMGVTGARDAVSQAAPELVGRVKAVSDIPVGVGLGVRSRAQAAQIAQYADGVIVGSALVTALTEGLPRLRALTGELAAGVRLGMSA
# T1 sequence (P9WFX9 12-421): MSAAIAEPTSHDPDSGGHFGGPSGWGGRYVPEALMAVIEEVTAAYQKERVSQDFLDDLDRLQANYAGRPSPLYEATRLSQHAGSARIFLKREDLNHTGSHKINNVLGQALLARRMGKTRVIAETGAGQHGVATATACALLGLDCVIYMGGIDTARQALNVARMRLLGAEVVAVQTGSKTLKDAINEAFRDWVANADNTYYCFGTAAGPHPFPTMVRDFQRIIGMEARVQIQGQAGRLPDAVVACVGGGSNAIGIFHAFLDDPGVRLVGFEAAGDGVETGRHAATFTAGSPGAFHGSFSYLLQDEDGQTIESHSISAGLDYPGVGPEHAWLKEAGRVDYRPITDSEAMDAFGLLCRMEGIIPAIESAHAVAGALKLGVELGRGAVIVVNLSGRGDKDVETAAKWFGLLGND
# Chain of TrpAB (P9WFX9 12-421): as above
# Chain of TrpAB (P9WFY1 whole entry): as the sequence (P9WFY1 whole entry) above
smiles,measurement,setting,value
"N#C[C@@H]1N[C@@H](CO)[C@H]1c1ccc(-c2ccccc2F)cc1 [BRD4592, (2R,3S,4R)-3-(2′-fluoro-[1,1′-biphenyl]-4-yl)-4-(hydroxymethyl)azetidine-2-carbonitrile]",effect of L-Trp addition to growth medium on lethal effects,Mtb [1]; 1 mM L-Trp supplementation,rescued
same,MIC90,"Mtb [1]; Mycobacterium tuberculosis, read-out: MIC90 (minimal concentration needed to inhibit 90% of bacterial growth)",3 µM
same,activity among the stereoisomers of the azetidine,"Mtb [1]; three stereogenic centers, eight stereoisomeric forms",only the BRD4592 stereoisomer was active
same,reduction of colony-forming units (CFUs) of Mtb cultures,Mtb [2],2–3 logs
same,spectrum of activity against bacterial species,[3],active against several mycobacterial species but not other bacteria tested
same,initial inhibition of the α-reaction,Mtb TrpAB [4],more than 200 fold
same,kcat^α under saturating compound,Mtb TrpAB [4],0.0013 ± 0.00017 s⁻¹
same,mode of inhibition versus IGP,Mtb TrpAB [4],uncompetitive
same,mode of inhibition versus L-Ser,Mtb TrpAB [4],mixed-type inhibitor
same,α value (mixed-type inhibition),Mtb TrpAB [4],0.81 ± 0.06
same,α values (mixed model),Mtb TrpAB [4],< 0.00001
same,initial inhibition of the β-reaction,Mtb TrpAB [5],more than 200 fold
same,kcat^β under saturating compound,Mtb TrpAB [5],0.00433 ± 0.00017 s⁻¹
same,mode of inhibition with respect to indole,Mtb TrpAB [5],uncompetitive
same,rate of L-Trp production slower than uninhibited enzyme,Mtb TrpAB [5],750 times
same,increase in affinity of TrpAB for L-Trp,Mtb TrpAB [6],4.5 fold
same,reversibility of inhibition,TrpAB,reversible inhibitor
same,restriction of Mtb growth in macrophages compared to DMSO,Mtb in J774 macrophages,eight-fold
same,restriction of M. marinum growth in zebrafish embryos compared to DMSO,M. marinum,~ 1.5 logs
same,Tm of TrpAB with compound,Mtb TrpAB [7],81.6 ± 0.2 °C
same,increase of Tm of TrpAB in active β^C conformation,Mtb TrpAB [7],8 °C
same,stabilization of the open conformation,Mtb TrpAB [7],did not stabilize
same,activity in 36 screens reported in PubChem,[8],no activity
same,microsomal CLint at 1 μM,in vitro [9],336 µL/min/mg
same,hepatocyte CLint at 1 μM,in vitro [10],47.2 µL/min/1e6 cells
same,inhibition of GAPDH activity,GAPDH,not found to inhibit
